Reference: patent US20240262804A1, “NITROGEN-CONTAINING HETEROCYCLIC KETONES, PREPARATION METHODS AND MEDICINAL USES THEREOF” (Hansoh Bio LLC, priority 2021, published 2024)

Target: bovine cardiac myosin (Bos taurus (Bovine), UniProt Q9BE39)
Test: Myosin inhibitory potency: PK/LDH-coupled ATPase assay on bovine skinned cardiac myofibrils
Format: biochemical
Settings: pCa=6.25, 50 μM ATP, 25° C., read-out: myosin inhibition activity IC50
Experimental: The average rates of ATPase inhibition, and the IC50 values are determined by Victor Nivo multimode plate reader (PerkinElmer, USA).
As to the assays background, a biochemical assay couples the ATPase activity of bovine cardiac myosin to an enzymatic coupling system consisting of pyruvate kinase and lactate dehydrogenase (PK/LDH) and monitoring the absorbance decrease of NADH (at 340 nm) as a function of time to measure the inhibitory ability of small molecule agents. In the assay, PK converts ADP (Adenosine diphosphate) to ATP (adenosine triphosphate) by converting PEP (phosphoenolpyruvate) to pyruvate. Pyruvate is then converted to lactate by LDH by converting NADH (nicotinamide adenine dinucleotide) to NAD (oxidized nicotinamide adenine dinucleotide).
In our experiments, bovine skinned cardiac myofibrils were isolated from the frozen bovine left ventricle as myosin's source in the ATPase assay. The calcium concentration that achieves a 50% (pCa50 or pCa=6.25) activation of the myofibril system was chosen as the final condition for assessing the activation activity according to the literature (DOI: 10.1074/jbc.M117.776815). Myofibrils ATPase activity was measured in a buffered solution containing 12 mM PIPES (piperazine-N, N′-bis(2-ethane sulfonic acid) and 2 mM magnesium chloride at pH 6.8 (PM12 buffer). Final assay conditions were 1 mg/mL of bovine cardiac myofibrils, 1:20 of stock PK/LDH (Sigma-Aldrich, Cat No. P0294-5X5ML), 50 μM ATP, 1 mM DTT (dithiothreitol), 0.75 mM NADH, 1.5 mM PEP at pCa50 (pCa=6.25). Compounds were dissolved in DMSO (dimethyl sulfoxide). Serial dilution of compounds was created such that the final desired concentration of compound would be achieved in a volume of 150 μL with a fixed DMSO concentration of 2% (v/v). 75 μL of a solution containing bovine cardiac myofibrils, PK/LDH, and calcium were added to a 96 well plate for a 7 point dose-response. In some circumstances, 10 point-response was used to repeat the ATPase assays on compounds of interest. Compounds were added to the myofibrils solution and incubated for 5 minutes. The enzymatic reaction was started with the addition of 75 μL of a solution containing ATP, PEP, NADH, compounds, and calcium. The ATPase activity was measured by reading absorbance at 340 nm in a PerkinElmer Victor Nivo plate reader at 25° C. in kinetic mode for 15 minutes using clear bottom plates. The slopes of the absorbance changes as a function of time for the first 10 minutes were normalized to slopes on the control wells containing all reagents, including DMSO, but without compounds. This normalized rate was then plotted as a function of small molecule concentration in GraphPad prism 9. The data were fitted to a four-parameter fit, and IC50 was calculated using Graphpad Prism 9.

Sequence of bovine cardiac myosin (Q9BE39 whole entry): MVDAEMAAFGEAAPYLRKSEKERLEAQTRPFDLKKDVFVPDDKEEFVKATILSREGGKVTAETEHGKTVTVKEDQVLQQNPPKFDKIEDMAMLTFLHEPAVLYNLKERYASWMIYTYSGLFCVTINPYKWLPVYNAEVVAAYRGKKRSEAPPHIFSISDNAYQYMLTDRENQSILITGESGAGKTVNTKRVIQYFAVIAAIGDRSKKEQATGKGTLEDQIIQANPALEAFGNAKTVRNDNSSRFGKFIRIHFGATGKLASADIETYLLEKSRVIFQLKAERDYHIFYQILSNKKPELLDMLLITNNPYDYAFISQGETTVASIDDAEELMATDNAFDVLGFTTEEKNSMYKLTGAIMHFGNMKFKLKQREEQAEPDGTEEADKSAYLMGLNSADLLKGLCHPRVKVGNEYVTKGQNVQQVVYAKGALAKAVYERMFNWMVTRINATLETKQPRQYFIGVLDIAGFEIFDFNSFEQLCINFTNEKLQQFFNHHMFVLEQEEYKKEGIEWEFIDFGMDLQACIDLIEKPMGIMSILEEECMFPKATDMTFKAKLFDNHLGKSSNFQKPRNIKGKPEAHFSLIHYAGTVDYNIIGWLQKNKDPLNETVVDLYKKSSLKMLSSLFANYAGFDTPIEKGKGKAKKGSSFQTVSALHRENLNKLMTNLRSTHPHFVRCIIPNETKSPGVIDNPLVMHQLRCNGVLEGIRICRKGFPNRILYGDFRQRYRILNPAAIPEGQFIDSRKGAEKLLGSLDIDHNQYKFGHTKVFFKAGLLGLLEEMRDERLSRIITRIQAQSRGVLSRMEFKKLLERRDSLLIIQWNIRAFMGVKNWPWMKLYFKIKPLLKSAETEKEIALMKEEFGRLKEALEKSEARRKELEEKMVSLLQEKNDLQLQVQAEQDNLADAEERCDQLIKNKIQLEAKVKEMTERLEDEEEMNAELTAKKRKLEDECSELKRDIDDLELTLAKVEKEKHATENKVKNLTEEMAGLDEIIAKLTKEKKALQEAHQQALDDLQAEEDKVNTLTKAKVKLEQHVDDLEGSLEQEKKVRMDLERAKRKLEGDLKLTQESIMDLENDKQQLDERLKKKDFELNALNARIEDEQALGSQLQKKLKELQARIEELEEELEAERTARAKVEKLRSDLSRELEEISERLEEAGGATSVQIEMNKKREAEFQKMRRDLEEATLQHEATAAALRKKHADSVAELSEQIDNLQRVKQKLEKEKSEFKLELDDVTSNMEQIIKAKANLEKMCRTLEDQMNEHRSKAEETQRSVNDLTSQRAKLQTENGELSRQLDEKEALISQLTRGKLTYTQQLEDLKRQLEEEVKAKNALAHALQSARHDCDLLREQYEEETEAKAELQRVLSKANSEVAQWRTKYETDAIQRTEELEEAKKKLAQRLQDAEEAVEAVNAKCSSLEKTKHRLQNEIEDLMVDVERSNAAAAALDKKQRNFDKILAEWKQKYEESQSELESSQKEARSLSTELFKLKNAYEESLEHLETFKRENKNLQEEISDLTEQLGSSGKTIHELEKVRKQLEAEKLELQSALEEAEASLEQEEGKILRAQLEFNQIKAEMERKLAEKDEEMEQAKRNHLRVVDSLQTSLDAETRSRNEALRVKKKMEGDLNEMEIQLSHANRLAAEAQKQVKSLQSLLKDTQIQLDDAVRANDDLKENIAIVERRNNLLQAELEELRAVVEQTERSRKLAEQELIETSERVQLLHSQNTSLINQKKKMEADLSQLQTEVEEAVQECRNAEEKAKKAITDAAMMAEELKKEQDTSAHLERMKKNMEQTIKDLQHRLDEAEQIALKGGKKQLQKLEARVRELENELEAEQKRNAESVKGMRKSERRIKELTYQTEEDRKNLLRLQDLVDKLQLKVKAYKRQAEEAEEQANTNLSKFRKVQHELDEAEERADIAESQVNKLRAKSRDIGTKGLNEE
Sequence of bovine cardiac myosin (P85100 whole entry partner): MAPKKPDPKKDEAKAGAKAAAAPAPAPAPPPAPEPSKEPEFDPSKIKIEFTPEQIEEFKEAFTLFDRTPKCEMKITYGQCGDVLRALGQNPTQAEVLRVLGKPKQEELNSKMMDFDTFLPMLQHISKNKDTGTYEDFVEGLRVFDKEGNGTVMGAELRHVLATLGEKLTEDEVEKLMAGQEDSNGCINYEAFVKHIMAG
Sequence of bovine cardiac myosin (Q3SZE5 whole entry partner): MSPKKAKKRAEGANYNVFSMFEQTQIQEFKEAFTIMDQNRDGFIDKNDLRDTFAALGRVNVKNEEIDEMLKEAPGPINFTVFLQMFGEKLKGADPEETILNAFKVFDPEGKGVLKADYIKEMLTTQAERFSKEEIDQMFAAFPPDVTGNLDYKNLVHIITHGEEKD

Compound | IC50
CC(Nc1nc(=O)n(C2CCNCC2)c(=O)[nH]1)c1ccc(C(F)(F)F)cc1 (centres unmarked) [Example 193] | 5150 nM
Cc1cccc([C@H](C)Nc2nc(=O)n([C@H]3CC[C@@H](NC(=O)OC(C)(C)C)CC3)c(=O)[nH]2)c1 [Example 96] | 4580 nM
Cc1ccc(C(C)Nc2nc(=O)n(C3CCNCC3)c(=O)[nH]2)cc1 (centres unmarked) [Example 194] | 4470 nM
CC[C@H](Nc1nc(=O)n(C(C)C)c(=O)[nH]1)C1CCCCC1 [Example 70] | 5280 nM
C[C@H](Nc1nc(=O)n(C2CCN(CCF)CC2)c(=O)[nH]1)C1CCCCC1 [Example 300] | 2290 nM
CO[C@H]1CC[C@@H](n2c(=O)nc(N[C@@H](C)C3CCCCC3)[nH]c2=O)CC1 [Example 84] | 5770 nM
CC(Nc1nc(=O)n(C2CCOCC2)c(=O)[nH]1)c1ccc(F)cc1 (centres unmarked) [Example 125] | 8400 nM
Cc1cnn(-c2cccc([C@H](C)Nc3nc(=O)n(C4CCOCC4)c(=O)[nH]3)c2)c1 [Example 204] | 5430 nM
C[C@H](Nc1nc(=O)n(C2CCOCC2)c(=O)[nH]1)c1cccc(N2CCOCC2)c1 [Example 206] | 3800 nM
C[C@H](Nc1nc(=O)n([C@H]2CC[C@@H](O)CC2)c(=O)[nH]1)C1CCCCC1 [Example 237] | 4780 nM
CC(Nc1nc(=O)n(C2CCOCC2)c(=O)[nH]1)c1cccc(-n2cccn2)c1 (centres unmarked) [Example 217] | 3660 nM
Cc1ccc(F)c([C@H](C)Nc2nc(=O)n([C@H](C3CC3)C(F)(F)F)c(=O)[nH]2)c1 [Example 303] | 560 nM
Cc1cccc([C@H](C)Nc2nc(=O)n(C3CCCCC3)c(=O)[nH]2)c1 [Example 93] | 8030 nM
Cc1cccc(C(C)Nc2nc(=O)n(C3CCN(C(=O)OC(C)(C)C)CC3)c(=O)[nH]2)c1 (centres unmarked) [Example 146] | 5510 nM
CC(Nc1nc(=O)n(C2CCOCC2)c(=O)[nH]1)c1ccc(O)cc1 (centres unmarked) [Example 103] | 14100 nM
C[C@H](Nc1nc(=O)n(C2CCN(C)CC2)c(=O)[nH]1)C1CCCCC1 [Example 59] | 2590 nM
C[C@H](Nc1nc(=O)n(CC(F)(F)F)c(=O)[nH]1)c1ccc(OC(F)(F)F)cc1 [Example 176] | 7900 nM
C[C@H](Nc1nc(=O)n(C2CCN(C)C(=O)C2)c(=O)[nH]1)C1CCCCC1 (some centres unmarked) [Example 23] | 8050 nM
CC(=O)N1CCC(n2c(=O)nc(N[C@@H](C)C3CCCCC3)[nH]c2=O)CC1 [Example 236] | 2650 nM
C[C@H](Nc1nc(=O)n([C@H](C)C(F)(F)F)c(=O)[nH]1)c1cccc(F)c1 [Example 178] | 3320 nM
CC(Nc1nc(=O)n(C(C)C)c(=O)[nH]1)C1CCC(F)(F)CC1 (centres unmarked) [Example 66] | 10200 nM
O=c1nc(NC2CCc3ccccc32)[nH]c(=O)n1C1CCOCC1 (centres unmarked) [Example 149] | 5500 nM
C[C@H](Nc1nc(=O)n([C@H]2CC[C@H](O)CC2)c(=O)[nH]1)C1CCCCC1 [Example 238] | 4280 nM
C[C@H](Nc1nc(=O)n(C2CCOCC2)c(=O)[nH]1)c1ccc(Cl)c(F)c1 [Example 166] | 5370 nM
CC(C)N1CCC(n2c(=O)nc(N[C@@H](C)C3CCCCC3)[nH]c2=O)CC1 [Example 31] | 5910 nM
CC(Nc1nc(=O)n(C2CCNCC2)c(=O)[nH]1)c1ccccc1F (centres unmarked) [Example 190] | 4650 nM
CNC(=O)N1CCC(n2c(=O)nc(N[C@@H](C)c3cccc(C)c3)[nH]c2=O)CC1 [Example 245] | 5500 nM

Next, values leading:

IC50 | Compound
1070 nM | CC(C)(C#N)c1cccc([C@@H](Nc2nc(=O)n(C3CCOCC3)c(=O)[nH]2)C(F)F)c1 [Example 268]
550 nM | C[C@H](O)c1cccc([C@H](C)Nc2nc(=O)n(C3CCOCC3)c(=O)[nH]2)c1 [Example 344]
1370 nM | CC(C)n1c(=O)nc(N[C@H](c2cccc(C(C)(C)C#N)c2)C(F)F)[nH]c1=O [Example 264]
1780 nM | C[C@H](Nc1nc(=O)n(C2CCOCC2)c(=O)[nH]1)c1cccc(-n2ccnc2)c1 [Example 200]
2040 nM | Cc1c(-c2cccc([C@H](C)Nc3nc(=O)n(C4CCOCC4)c(=O)[nH]3)c2)cnn1C [Example 197]
2310 nM | O=c1nc(N[C@H](c2ccc(F)cc2F)C(F)F)[nH]c(=O)n1C1CCOCC1 [Example 263]
950 nM | C[C@H](Nc1nc(=O)n(C2CCOCC2)c(=O)[nH]1)c1ccc(Cl)cc1 [Example 251]
1210 nM | CC(C)n1c(=O)nc(N[C@@H](C)c2cccc(C(F)(F)F)c2)[nH]c1=O [Example 322]
1520 nM | C[C@H](Nc1nc(=O)n(C2CCOCC2)c(=O)[nH]1)c1cccc(F)c1F [Example 170]
820 nM | C[C@H](Nc1nc(=O)n(C2CCOCC2)c(=O)[nH]1)c1cccc(-c2cnn(C)c2)c1 [Example 229]
900 nM | CO[C@H]1COCC[C@@H]1n1c(=O)nc(N[C@@H](C)c2cc(C)ccc2F)[nH]c1=O [Example 282]
700 nM | C[C@@H](Nc1nc(=O)n(C2CCOCC2)c(=O)[nH]1)c1ccc(C2CC2)cc1 [Example 334]
1830 nM | CC(Nc1nc(=O)n(C2CCOCC2)c(=O)[nH]1)c1cc(F)ccc1F (centres unmarked) [Example 127]
490 nM | C[C@H](Nc1nc(=O)n(C2CCOCC2)c(=O)[nH]1)c1cccc(OC(F)(F)F)c1 [Example 202]
150 nM | C[C@H](Nc1nc(=O)n(C2CCOCC2)c(=O)[nH]1)c1cccc(C(C)(C)C#N)c1 [Example 276]
1800 nM | CC(=O)N1CCC(c2cccc([C@H](C)Nc3nc(=O)n(C(C)C)c(=O)[nH]3)c2)CC1 [Example 289]
950 nM | Cc1cc([C@H](C)Nc2nc(=O)n(C(C)C)c(=O)[nH]2)ccc1F [Example 305]
1290 nM | Cc1cccc([C@H](C)Nc2nc(=O)n([C@H]3CC[C@H](NC(=O)OC(C)(C)C)CC3)c(=O)[nH]2)c1 [Example 97]
1050 nM | C[C@@H](Nc1nc(=O)n(C2CCOCC2)c(=O)[nH]1)c1ccc2c(c1)OC(F)(F)O2 [Example 318]

IC50 | Compound
880 nM | CC(=O)N1CCC(n2c(=O)nc(N[C@@H](C)c3cccc(C)c3)[nH]c2=O)CC1 [Example 243]
1310 nM | C[C@H](Nc1nc(=O)n(C2CCOCC2)c(=O)[nH]1)c1cccc(C2CCN(C(=O)OC(C)(C)C)CC2)c1 [Example 211]
1300 nM | C[C@H](Nc1nc(=O)n(C2CCOCC2)c(=O)[nH]1)c1c(F)cccc1Cl [Example 13]
860 nM | Cc1cc([C@H](C)Nc2nc(=O)n([C@@H]3CCOC[C@@H]3F)c(=O)[nH]2)ccc1F [Example 296]
290 nM | Cc1cccc([C@H](Nc2nc(=O)n(C3CCOCC3)c(=O)[nH]2)C(F)F)c1 [Example 284]
820 nM | Cc1ccccc1-c1cccc([C@H](C)Nc2nc(=O)n(C3CCOCC3)c(=O)[nH]2)c1 [Example 225]
880 nM | C[C@H](Nc1nc(=O)n(C2CCOCC2)c(=O)[nH]1)c1ccc2c(c1)OC(F)(F)O2 [Example 298]
510 nM | COC[C@H](Nc1nc(=O)n(C(C)C)c(=O)[nH]1)c1cccc(C)c1 [Example 285]
870 nM | CC(C)n1c(=O)nc(N[C@@H](C)c2cccc([C@@H](C)O)c2)[nH]c1=O [Example 271]
240 nM | C[C@H](Nc1nc(=O)n(C2CCOCC2)c(=O)[nH]1)c1cccc([C@@H](C)O)c1 [Example 286]
1740 nM | C[C@H](Nc1nc(=O)n(C2CCOCC2)c(=O)[nH]1)c1cccc(F)c1 [Example 124]
1090 nM | CO[C@@H]1COCC[C@H]1n1c(=O)nc(N[C@@H](C)c2cc(C)ccc2F)[nH]c1=O [Example 283]
1320 nM | C[C@H](Nc1nc(=O)n(C2CCOCC2)c(=O)[nH]1)c1cccc(C2CCOCC2)c1 [Example 207]
470 nM | C[C@H](Nc1nc(=O)n(C2CCOCC2)c(=O)[nH]1)c1ccccc1Cl [Example 159]
2050 nM | C[C@H](Nc1nc(=O)n(C2CCOCC2)c(=O)[nH]1)c1cccc(-c2cccnc2)c1 [Example 222]
1470 nM | Cc1cccc([C@H](C)Nc2nc(=O)n([C@@H]3CCOC[C@@H]3F)c(=O)[nH]2)c1 [Example 315]
2380 nM | CC(C)n1c(=O)nc(N[C@@H](C)c2cccc(F)c2)[nH]c1=O [Example 181]
760 nM | CC(C)n1c(=O)nc(N[C@H](c2cccc(C3CN(CC(F)(F)F)C3)c2)C(F)F)[nH]c1=O [Example 261]
370 nM | Cc1cc([C@@H](C)Nc2nc(=O)n(C3CCOCC3)c(=O)[nH]2)c(F)cc1F [Example 272]
